Experimental findings from publication PMC8760635 (Analytical chemistry, 2021) are described below.

By Kd is commonly meant the equilibrium constant for the complex coming apart.

Read-outs that look alike come from different tables or passages of the source.

In the assay the target is recombinant His6-tagged human FABP5 (Homo sapiens, UniProt Q01469). The assay can be described thus: Isothermal titration calorimetry. Type of assay: binding.
Chain of recombinant His6-tagged human FABP5 (Q01469 whole entry): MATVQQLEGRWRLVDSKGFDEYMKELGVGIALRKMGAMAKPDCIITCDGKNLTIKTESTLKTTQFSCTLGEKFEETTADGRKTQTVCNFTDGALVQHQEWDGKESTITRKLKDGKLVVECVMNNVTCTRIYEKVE

Take `O=P(O)(O)C(F)(F)C(F)(F)C(F)(F)C(F)(F)C(F)(F)C(F)(F)C(F)(F)C(F)(F)F` [PFOPA, perfluorooctanephosphonic acid]: under “read-out: dissociation constant (Kd), ITC, 25 °C, 100 mM NaCl, 30 mM Tris (pH 7.5), 5% glycerol, one-binding-site model, ± error of the fit”, the Kd was determined as 167 ± 34 µM.

Take `O=C(O)C(F)(F)C(F)(F)C(F)(F)C(F)(F)C(F)(F)C(F)(F)C(F)(F)F` [PFOA, perfluorooctanoic acid]: the Kd came to 77 ± 17 µM.
